Where two headings read alike, the source gives them in different places.
Legend:
[1] = target: T1, estrogen receptor (Rattus norvegicus, UniProt P06211); assay: relative binding affinity (RBA) for estrogen receptor from immature rat uterus
T1 construct: estrogen receptor from immature rat uterus; from tissue; host or cells: uterus cytosol of immature rats
T1 sequence (P06211 1-600): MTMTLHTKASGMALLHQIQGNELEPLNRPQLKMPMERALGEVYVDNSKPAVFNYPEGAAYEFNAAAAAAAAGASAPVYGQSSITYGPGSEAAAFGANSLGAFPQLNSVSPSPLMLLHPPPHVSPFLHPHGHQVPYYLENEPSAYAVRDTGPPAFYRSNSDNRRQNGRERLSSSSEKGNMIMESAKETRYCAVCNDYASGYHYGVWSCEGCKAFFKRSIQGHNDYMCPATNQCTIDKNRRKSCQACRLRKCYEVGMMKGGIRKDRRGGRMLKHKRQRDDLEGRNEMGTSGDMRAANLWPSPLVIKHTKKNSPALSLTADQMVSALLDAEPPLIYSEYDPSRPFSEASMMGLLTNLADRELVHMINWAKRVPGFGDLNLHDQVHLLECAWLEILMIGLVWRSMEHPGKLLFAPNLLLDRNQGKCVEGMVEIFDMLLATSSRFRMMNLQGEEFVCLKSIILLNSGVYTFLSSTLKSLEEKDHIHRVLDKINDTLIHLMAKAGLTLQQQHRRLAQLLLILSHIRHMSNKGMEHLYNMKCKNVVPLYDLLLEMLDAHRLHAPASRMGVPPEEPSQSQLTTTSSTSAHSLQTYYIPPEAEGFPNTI
Description: (§1) concentrations) with cytosol containing the receptor and a tritiumlabeled
(§2) required to displace 50% of bound radioligand is determined graphically

[2] = target: T2, progesterone receptor (Oryctolagus cuniculus, UniProt P06186); assay: relative binding affinity (RBA) for progesterone receptor in cytosol of estrogen-primed immature rabbit uterus; conditions: relative to progesterone = 100; average of 1-3 assays
T2 construct: cytosol obtained from estrogen-primedimmature rabbit uterus; from tissue; host or cells: uterus cytosol of estrogen-primed immature rabbits
T2 sequence (P06186 1-930): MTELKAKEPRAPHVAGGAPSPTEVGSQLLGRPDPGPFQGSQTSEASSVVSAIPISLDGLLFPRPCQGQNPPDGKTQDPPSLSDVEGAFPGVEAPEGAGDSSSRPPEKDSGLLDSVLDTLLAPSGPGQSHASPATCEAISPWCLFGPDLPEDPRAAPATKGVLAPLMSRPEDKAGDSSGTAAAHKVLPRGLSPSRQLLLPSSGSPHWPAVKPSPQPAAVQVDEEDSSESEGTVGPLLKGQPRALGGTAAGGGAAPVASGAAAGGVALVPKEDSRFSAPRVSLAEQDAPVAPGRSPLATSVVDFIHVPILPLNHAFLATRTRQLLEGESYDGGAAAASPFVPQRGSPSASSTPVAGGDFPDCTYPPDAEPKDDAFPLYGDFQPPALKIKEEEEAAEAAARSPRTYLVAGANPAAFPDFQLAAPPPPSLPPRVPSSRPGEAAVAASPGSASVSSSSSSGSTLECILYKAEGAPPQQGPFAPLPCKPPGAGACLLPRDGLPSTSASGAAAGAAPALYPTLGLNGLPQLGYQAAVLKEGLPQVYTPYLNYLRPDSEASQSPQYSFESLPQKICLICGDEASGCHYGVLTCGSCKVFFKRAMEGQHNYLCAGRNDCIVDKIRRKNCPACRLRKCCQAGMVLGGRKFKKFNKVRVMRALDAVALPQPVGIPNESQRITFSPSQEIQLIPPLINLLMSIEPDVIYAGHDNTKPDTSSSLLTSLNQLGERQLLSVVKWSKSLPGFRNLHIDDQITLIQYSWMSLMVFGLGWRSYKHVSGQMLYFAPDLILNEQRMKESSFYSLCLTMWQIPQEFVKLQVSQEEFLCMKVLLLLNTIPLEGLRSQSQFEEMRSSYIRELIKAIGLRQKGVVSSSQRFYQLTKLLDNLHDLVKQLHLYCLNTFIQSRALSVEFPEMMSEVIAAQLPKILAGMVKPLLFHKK
Description: as §1, §2

[3] = target: T3, glucocorticoid receptor (Rattus norvegicus, UniProt P06536); assay: relative binding affinity (RBA) for glucocorticoid receptor from thymus of adrenalectomized rats; conditions: for RBA for Glucocorticoid receptor: relative to dexamethasone = 100, average of 1-3 assays; for binding to the glucocorticoid receptor, times the RBA of dexamethasone: compared with dexamethasone
T3 construct: glucocorticoid receptor from thymus of adrenalectomized rats; from tissue; host or cells: thymus cytosol of adrenalectomized rats
T3 sequence (P06536 1-795): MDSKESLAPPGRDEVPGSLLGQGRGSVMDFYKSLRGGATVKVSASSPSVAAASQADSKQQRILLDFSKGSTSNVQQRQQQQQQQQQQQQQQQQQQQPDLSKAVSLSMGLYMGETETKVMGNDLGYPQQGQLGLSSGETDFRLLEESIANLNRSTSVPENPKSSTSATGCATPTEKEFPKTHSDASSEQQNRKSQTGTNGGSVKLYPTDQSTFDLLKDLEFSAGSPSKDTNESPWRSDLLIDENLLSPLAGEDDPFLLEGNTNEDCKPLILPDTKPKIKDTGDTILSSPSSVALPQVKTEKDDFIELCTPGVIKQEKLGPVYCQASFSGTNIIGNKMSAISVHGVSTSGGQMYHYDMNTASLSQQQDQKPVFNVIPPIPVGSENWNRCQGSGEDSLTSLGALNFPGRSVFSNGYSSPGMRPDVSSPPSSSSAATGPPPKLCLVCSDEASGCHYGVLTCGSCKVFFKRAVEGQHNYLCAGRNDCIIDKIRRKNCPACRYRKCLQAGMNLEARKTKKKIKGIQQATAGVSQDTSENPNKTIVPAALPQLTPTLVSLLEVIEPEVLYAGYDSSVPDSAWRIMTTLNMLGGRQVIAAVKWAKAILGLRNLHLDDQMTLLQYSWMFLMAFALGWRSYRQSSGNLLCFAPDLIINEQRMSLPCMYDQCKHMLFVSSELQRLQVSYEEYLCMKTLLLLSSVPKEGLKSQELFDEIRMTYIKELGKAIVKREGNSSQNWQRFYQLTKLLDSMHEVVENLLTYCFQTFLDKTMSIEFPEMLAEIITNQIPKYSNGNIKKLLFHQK
Description: as §1, §2

[4] = vs levonorgestrel; cited from earlier work
[5] = in vivo; cited from earlier work
[6] = system: endometrial response due to subcutaneous administration of progesterone; assay: in vivo antiprogestational activity, intrauterine (McGinty test); parameters: species or system rabbit
Source text: (§3) The antiprogestational activity of compound XVa was studied after both intrauterine and oral administration. […] The methodology used for the intrauterine test has been described by D. A. McGinty et al [Endocrinology, 24, 829 (1939)]. For oral administration of test compounds the method used was analogous to that of Clauberg [Clauberg, Zentr. Gynakol, 54, 2757 (1930)] as modified by McPhail [J. Physiol. (London) 83, 145 (1935)].
(§4) ^a Immature female rabbits are primed with estrogen and dosed with
(§5) stained and scored for endometrial proliferation according to McPhail.

[7] = system: endometrial response due to subcutaneous administration of progesterone; assay: in vivo antiprogestational activity, oral (Clauberg test modified by McPhail); parameters: species or system rabbit
Source text: as §3, §4, §5

[8] = relative to estradiol = 100, average of 1-3 assays

| Molecule | RBA for Estrogen receptor [1, 8] | RBA for Progestin receptor [2] | RBA for Glucocorticoid receptor [3] | further results |
| --- | --- | --- | --- | --- |
| 11β-(4-Dimethylaminophenyl)-17β-hydroxy-17α-azidomethyl-4,9-estradien-3-one [XVb] | 0 | 71 | 143 | – |
| 11β-(4-Dimethylaminophenyl)-17β-hydroxy-17α-benzyl-4,9-estradien-3-one [XVd] | 0 | 64 | 274 | binding to the glucocorticoid receptor, times the RBA of dexamethasone [3]: ca. 3 times |
| 11β-(4-Dimethylaminophenyl)-17β-hydroxy-17α-methoxymethyl-4,9-estradien-3-one [XVc] | 0 | 54 | 413 | binding to the glucocorticoid receptor, times the RBA of dexamethasone [3]: ca. 3 times |
| 11β-(4-Dimethylaminophenyl)-17β-hydroxy-17α-prop-2-yn-1-yl- 4,9-estradien-3-one [XVe] | 0 | 23 | 100 | – |
| C[C@@H]1C[C@H]2[C@@H]3CCC4=CC(=O)C=C[C@]4(C)[C@@]3(F)[C@@H](O)C[C@]2(C)[C@@]1(O)C(=O)CO [Dexamethasone, reference compound] | – | 0.1 | – | – |
| CC(=O)[C@H]1CC[C@H]2[C@@H]3CCC4=CC(=O)CC[C@]4(C)[C@H]3CC[C@]12C [Progesterone, reference compound] | 0 | – | – | – |
| C[C@]12CCC3=C4CCC(=O)C=C4CC[C@H]3[C@@H]1CC[C@@]2(O)CC#N [STS 557] | – | – | – | oral potency as a gestagen relative to levonorgestrel [4]: ten times; progestational activity [5]: strong progestational activity |
| CN(C)c1ccc([C@H]2C[C@@]3(C)[C@@H](CC[C@@]3(O)CC#N)[C@@H]3CCC4=CC(=O)CCC4=C32)cc1 [XVa, 17α-Cyanomethyl-11β-(4-dimethylaminophenyl)-17β-hydroxy-4,9-estradien-3-one] | – | 33 | 74 | RBA for Estrogen receptor [1]: 0; % Inhibition of Progestational Response ([6]; total dose per rabbit 1.0 μg): 7.3 ± 4.5%; % Inhibition of Progestational Response ([6]; total dose per rabbit 5.0 μg): 26.7 ± 4.5%; % Inhibition of Progestational Response ([6]; total dose per rabbit 10.0 μg): 80.5 ± 9.8%; % Inhibition of Progestational Response ([6]; total dose per rabbit 40.0 μg): 96.3 ± 3.7%; % Inhibition of Progestational Response ([7]; total dose per rabbit 5 mg): 7.8 ± 6.0%; % Inhibition of Progestational Response ([7]; total dose per rabbit 10 mg): 56.2 ± 7.1%; % Inhibition of Progestational Response ([7]; total dose per rabbit 20 mg): 79.1 ± 7.4% |
